The text below walks through data of patent EP3603649A1 (priority 2018, dated 2020).

Data set [1] concerns endothelial cells of the BBB. The settings on record: cited from earlier work.
Data set [2] addresses Hamster recombinant full length PrP (Mesocricetus auratus, UniProt P04273). In kind it is biochemical.
The next data set concerns PrP^res. More on the design: species or system C57BL/6 mice. Conditions: mouse, in vivo.
A short description of the next data set: in vitro. The settings on record: mouse, cerebellar granule neurons.

Hamster recombinant full length PrP, sequence (P04273 23-254 limits assumed): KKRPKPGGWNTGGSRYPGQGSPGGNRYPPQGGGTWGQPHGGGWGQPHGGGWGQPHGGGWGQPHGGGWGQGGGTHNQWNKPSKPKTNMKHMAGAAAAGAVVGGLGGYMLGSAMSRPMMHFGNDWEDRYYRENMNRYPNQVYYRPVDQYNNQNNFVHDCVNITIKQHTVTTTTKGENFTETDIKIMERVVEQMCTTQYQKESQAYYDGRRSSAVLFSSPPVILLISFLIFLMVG

trimethyl-β-cyclodextrin [TRIMEB]: the “toxicity on endothelial cells of the BBB” value in data set [1] was “more toxic than α-cyclodextrin”.
As to `COC[C@H]1O[C@@H]2O[C@H]3[C@H](O)[C@@H](OC)[C@@H](O[C@H]4[C@H](O)[C@@H](OC)[C@@H](O[C@H]5[C@H](O)[C@@H](OC)[C@@H](O[C@H]6[C@H](O)[C@@H](OC)[C@@H](O[C@H]7[C@H](O)[C@@H](OC)[C@@H](O[C@H]8[C@H](O)[C@@H](OC)[C@@H](O[C@H]1[C@H](O)[C@H]2OC)O[C@@H]8COC)O[C@@H]7COC)O[C@@H]6COC)O[C@@H]5COC)O[C@@H]4COC)O[C@@H]3COC` [DIMEB, heptakis(2,6-O-dimethyl)beta-cyclodextrin], in data set [2], the “concentration of maximum effect on lag phase” value was 100 µM and the “lag phase (time for the reaction to start)” value is “significantly increased”. Also, in the data set with PrP^res, the “PrP^res accumulation in brain (difference between the groups)” value is reported as “did not show any difference”. The same molecule came in with an MCC at 72 h in the data set “in vitro” greater than 500 µM.
